target: T1, MAT2A homodimer (Homo sapiens, UniProt P31153); experiment: MAT2A biochemical assay (liberated phosphate, PiColorLock Gold); conditions: Table 5a; MAT2A biochemical assay; read-out: Enzyme Inhibition
T1 construct: inferred from the Ni sepharose purification and imidazole elution; made in house; host or cells: SF9 insect cells, recombinant baculovirus (Bac to Bac, pFASTBAC1)
Description: Mat2A protein was expressed by recombinant baculovirus in SF9 infected cells using the Bac to Bac system cloned into the pFASTBAC1 vector (Invitrogen, Carlsbad, Calif.). Recombinant MAT2A was isolated from the cell lysate of 150 g of infected cells using HP Ni sepharose column chromatography. Recombinant MAT2A homodimer was eluted with 250 and 500 mM imidazole, and fractions containing MAT2A were identified by sodium dodecyl sulfate polyacrylamide gel electrophoresis and pooled.
Test compound was prepared in 100% dimethyl sulfoxide (DMSO) at 50× the desired final concentration. A 1 μL volume of compound dilution was added to 40 μL of enzyme dilution and the mixture was allowed to equilibrate for 60 minutes at 25° C. The enzymatic assay was initiated by the addition of 10 μL of substrate mix (500 μM ATP, pH 7.0, 400 μM L-methionine in 1× assay buffer), and the mixture was incubated for a further 60 minutes at 25° C. The reaction was halted and the liberated phosphate released by the enzyme in stoichiometric amounts by the production of S-adenosyl methionine (SAM) was measured using the PiColorLock Gold kit (Innova Biosciences, UK). Absolute product amounts were determined by comparison to a standard curve of potassium phosphate buffer, pH 8.0.

T1 sequence (P31153 whole entry): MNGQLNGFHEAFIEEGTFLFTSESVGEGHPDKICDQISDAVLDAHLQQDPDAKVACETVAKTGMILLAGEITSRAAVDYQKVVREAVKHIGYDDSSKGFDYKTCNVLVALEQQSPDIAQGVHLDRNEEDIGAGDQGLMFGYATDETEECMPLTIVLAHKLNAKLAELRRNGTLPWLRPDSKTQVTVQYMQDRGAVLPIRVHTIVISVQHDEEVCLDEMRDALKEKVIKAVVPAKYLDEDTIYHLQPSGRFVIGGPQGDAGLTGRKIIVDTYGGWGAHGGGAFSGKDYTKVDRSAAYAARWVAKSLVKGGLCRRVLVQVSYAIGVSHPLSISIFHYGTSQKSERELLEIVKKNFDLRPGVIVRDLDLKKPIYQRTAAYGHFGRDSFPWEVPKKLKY

IC50 | Structure (SMILES)
< 100 nM | O=C1N(c2ccc3nccn3c2)Cc2cnc(NCC(F)(F)F)nc2N1c1ccc(C2CC2)cc1 [Example 213, 1-(4-cyclopropylphenyl)-3-(imidazo[1,2-a]pyridin-6-yl)-7-((2,2,2-trifluoroethyl)amino)-3,4-dihydropyrimido[4,5-d]pyrimidin-2(1H)-one]
100 to 1000 nM | Cn1cc(N2Cc3cnc(NCC(F)(F)F)nc3N(c3ccc(-c4nc[nH]n4)cc3)C2=O)ccc1=O [Example 221, 1-(4-(1H-1,2,4-triazol-3-yl)phenyl)-3-(1-methyl-6-oxo-1dihydropyridin-3-yl)-7-((2,2,2-trifluoroethyl)amino)-3,4-dihydropyrimido[4,5-d]pyrimidin-2(1H)-one]
< 100 nM | O=C1N(c2ccc3nccn3c2)Cc2cnc(NCC(F)(F)F)nc2N1c1ccc(-c2nc[nH]n2)cc1 [Example 222, 1-(4-(1H-1,2,4-triazol-3-yl)phenyl)-3-(imidazo[1,2-a]pyridin-6-yl)-7-((2,2,2-trifluoroethyl)amino)-3,4-dihydropyrimido[4,5-d]pyrimidin-2(1H)-one]
1000 to 10000 nM | O=C1N(c2ccnnc2)Cc2cnc(NCC(F)(F)F)nc2N1c1ccc(OC(F)F)cc1 [Example 224, 1-(4-(difluoromethoxy)phenyl)-3-(pyridazin-4-yl)-7-((2,2,2-trifluoroethyl)amino)-3,4-dihydropyrimido[4,5-d]pyrimidin-2(1H)-one]
< 100 nM | O=C1N(c2ccc3nccn3c2)Cc2cnc(NCC(F)(F)F)nc2N1c1ccc(OC(F)F)cc1 [Example 225, 1-(4-(difluoromethoxy)phenyl)-3-(imidazo[1,2-a]pyridin-6-yl)-7-((2,2,2-trifluoroethyl)amino)-3,4-dihydropyrimido[4,5-d]pyrimidin-2(1H)-one]
< 100 nM | O=C1N(c2ccc3ncccc3c2)Cc2cnc(NCC(F)(F)F)nc2N1c1ccc(C2CC2)cc1 [Example 226, 1-(4-cyclopropylphenyl)-3-(quinolin-6-yl)-7-((2,2,2-trifluoroethyl)amino)-3,4-dihydropyrimido[4,5-d]pyrimidin-2(1H)-one]
100 to 1000 nM | O=C1N(c2ccc3ncccc3c2)Cc2cnc(NCC(F)(F)F)nc2N1c1ccc(OC(F)F)cc1 [Example 227, 1-(4-(difluoromethoxy)phenyl)-3-(quinolin-6-yl)-7-((2,2,2-trifluoroethyl)amino)-3,4-dihydropyrimido[4,5-d]pyrimidin-2(1H)-one]
< 100 nM | COc1ccc(N2C(=O)N(c3ccc4nncn4c3)Cc3cnc(NCC(F)(F)F)nc32)cc1 [Example 229, 3-([1,2,4]triazolo[4,3-a]pyridin-6-yl)-1-(4-methoxyphenyl)-7-((2,2,2-trifluoroethyl)amino)-3,4-dihydropyrimido[4,5-d]pyrimidin-2(1H)-one]
< 100 nM | COc1ccc(N2C(=O)N(c3ccncc3)Cc3cnc(NCC(F)(F)F)nc32)cc1 [Example 230, 1-(4-methoxyphenyl)-3-(pyridin-4-yl)-7-((2,2,2-trifluoroethyl)amino)-3,4-dihydropyrimido[4,5-d]pyrimidin-2(1H)-one]
100 to 1000 nM | COc1ccc(N2C(=O)N(c3ccc(OC)cn3)Cc3cnc(NCC(F)(F)F)nc32)cc1 [Example 238, 1-(4-methoxyphenyl)-3-(5-methoxypyridin-2-yl)-7-((2,2,2-trifluoroethyl)amino)-3,4-dihydropyrimido[4,5-d]pyrimidin-2(1H)-one]
100 to 1000 nM | COc1ccc(N2C(=O)N(c3ccc(OC)nc3)Cc3cnc(NCC(F)(F)F)nc32)cc1 [Example 239, 1-(4-methoxyphenyl)-3-(6-methoxypyridin-3-yl)-7-((2,2,2-trifluoroethyl)amino)-3,4-dihydropyrimido[4,5-d]pyrimidin-2(1H)-one]
100 to 1000 nM | COc1ccc(N2Cc3cnc(NCC(F)(F)F)nc3N(c3ccc4ncccc4c3)C2=O)cc1 [Example 240]
100 to 1000 nM | COc1ccc(N2Cc3cnc(NCC(F)(F)F)nc3N(c3ccc(C)cc3)C2=O)cc1 [Example 243, 3-(4-methoxyphenyl)-1-(p-tolyl)-7-((2,2,2-trifluoroethyl)amino)-3,4-dihydropyrimido[4,5-d]pyrimidin-2(1H)-one]
1000 to 10000 nM | COc1ccc(N2Cc3cnc(SC)nc3N(c3ccc(C)cc3)C2=O)cc1 [Example 244, 3-(4-methoxyphenyl)-7-(methylthio)-1-(p-tolyl)-3,4-dihydropyrimido[4,5-d]pyrimidin-2(1H)-one]
1000 to 10000 nM | COc1ccc(N2Cc3cnc(NCC(F)(F)F)nc3N(c3ccc(Cl)c(Cl)c3)C2=O)cc1 [Example 245, 1-(3,4-dichlorophenyl)-3-(4-methoxyphenyl)-7-((2,2,2-trifluoroethyl)amino)-3,4-dihydropyrimido[4,5-d]pyrimidin-2(1H)-one]
1000 to 10000 nM | COc1ccc(N2C(=O)N(c3ccc4nn(C)cc4c3)Cc3cnc(NC4CCCCC4)nc32)cc1 [Example 248, 7-(cyclohexylamino)-1-(4-methoxyphenyl)-3-(2-methyl-2H-indazol-5-yl)-3,4-dihydropyrimido[4,5-d]pyrimidin-2(1H)-one]
100 to 1000 nM | COc1ccc(N2Cc3cnc(NCC(F)(F)F)nc3N(c3ccc(O)cc3)C2=O)cc1 [Example 249, 1-(4-hydroxyphenyl)-3-(4-methoxyphenyl)-7-((2,2,2-trifluoroethyl)amino)-3,4-dihydropyrimido[4,5-d]pyrimidin-2(1H)-one]
1000 to 10000 nM | COc1ccc(N2Cc3cnc(NCC(F)(F)F)nc3N(c3ccc(C#N)cc3)C2=O)cc1 [Example 251, 4-(3-(4-methoxyphenyl)-2-oxo-7-((2,2,2-trifluoroethyl)amino)-3,4-dihydropyrimido[4,5-d]pyrimidin-1(2H)-yl)benzonitrile]
100 to 1000 nM | COc1ccc(N2Cc3cnc(NCC(F)(F)F)nc3N(c3ccc4c(c3)CCO4)C2=O)cc1 [Example 253, 1-(2,3-dihydrobenzofuran-5-yl)-3-(4-methoxyphenyl)-7-((2,2,2-trifluoroethyl)amino)-3,4-dihydropyrimido[4,5-d]pyrimidin2(1H)-one]
100 to 1000 nM | COc1ccc(N2Cc3cnc(NCC(F)(F)F)nc3N(c3ccc4sccc4c3)C2=O)cc1 [Example 254, 1-(benzo[b]thiophen-5-yl)-3-(4-methoxyphenyl)-7-((2,2,2-trifluoroethyl)amino)-3,4-dihydropyrimido[4,5-d]pyrimidin2(1H)-one]
100 to 1000 nM | COc1ccc(N2Cc3cnc(NCC(F)(F)F)nc3N(c3ccc(OC(F)(F)F)cc3)C2=O)cc1 [Example 256, 3-(4-methoxyphenyl)-7-((2,2,2-trifluoroethyl)amino)-1-(4-(trifluoromethoxy)phenyl)-3,4-dihydropyrimido[4,5-d]pyrimidin-2(1H)-one]
100 to 1000 nM | COc1ccc(N2Cc3cnc(NCC(F)(F)F)nc3N(c3ccc(OC)cn3)C2=O)cc1 [Example 257, 3-(4-Methoxyphenyl)-1-(5-methoxypyridin-2-yl)-7-(2,2,2-trifluoroethylamino)-3,4-dihydropyrimido[4,5-d]pyrimidin-2(1H)-one]
100 to 1000 nM | COc1ccc(N2Cc3cnc(NCC(F)(F)F)nc3N([C@H]3CC[C@H](OC)CC3)C2=O)cc1 [Example 258]
100 to 1000 nM | COc1ccc(N2Cc3cnc(NCC(F)(F)F)nc3N(c3ccc(OC(F)F)nc3)C2=O)cc1 [Example 259]
1000 to 10000 nM | COc1ccc(N2Cc3cnc(NCC(F)(F)F)nc3N(c3ccc4nccn4c3)C2=O)cc1 [Example 260]

Reference: patent US20220098203A1 (priority 2018, published 2022)
